Data as given in US20230391841A1, “MACROCYCLIC PEPTIDES” (Herantis Pharma OYJ, priority 2019, published 2023).
Values belong to the compound of their own block, whether it stands above or below them. Bridge positions count the residues as written; N and C are the ends. Ends that are not written are not given here. Peptide text beside a SMILES is read from it.

How the values were obtained:
[1] = tested on: dopaminergic TH-positive neurons injured with MPP+; test: Neuroprotective effect on dopaminergic TH-positive neurons injured with MPP+ (primary mesencephalic culture); format: cell-based, rat
Protocol: Neuroprotective effects of compounds 1-26 (SEQ ID NO: 1-26) were tested in an in vitro model in which primary cultures of rat embryonic mesencephalic neurons were stressed with MPP+ , the active metabolite of neurotoxin 1-methyl-4-phenyl-1,2,3,6-tetrahydropyridine (MPTP). MPP+ kills dopaminergic (TH-positive) neurons via a variety of toxic mechanisms, including mitochondrial dysfunction, generation of peroxynitrite, oxidative stress, ER stress and induction of apoptosis.
Culture of mesencephalic neurons. Rat dopaminergic neurons were cultured as described by Visanji et al., 2008. Briefly, the midbrains obtained from 15-day-old rat embryos (Janvier, France) were dissected, and the ventral portion of the mesencephalic flexure, a region of the developing brain rich in dopaminergic neurons, was used for the cell preparations. The midbrain cells were dissociated by trypsinization for 20 min at 37° C. (solution at a final concentration of 0.05% trypsin and 0.02% EDTA). The reaction was stopped by adding Dulbecco's modified Eagle's medium (DMEM) containing DNAase I grade II (0.5 mg/mL) and 10% of fetal calf serum (FCS). Cells were then mechanically dissociated by 3 passages through a 10 ml pipette. Cells were then centrifuged at 180×g for 10 min at +4° C. on a layer of BSA (3.5%) in L15 medium. The cell pellets were re-suspended in a defined culture serum-free medium consisting of Neurobasal (Invitrogen) supplemented with B27 (2%), L-glutamine (2 mM) and 2% of PS solution and 1Ong/ml of Brain-derived neurotrophic factor (BDNF) and 1 ng/mL of Glial-Derived Neurotrophic Factor (GDNF). Viable cells were counted in a Neubauer cytometer using the trypan blue exclusion test. The cells were seeded at a density of 40 000 cells/well in 96 well-plates (pre-coated with poly-L-lysine) and maintained in a humidified incubator at 37° C. in 5% CO2/95% air atmosphere. Half of the medium was changed every 2 days with fresh medium. On 96-wells plates, only 60 wells are used. To avoid any edge effect, the first and last lines and columns were not used for culture and were filled with sterile water.
CDNF as well as linear and macrocyclic compounds […] (SEQ ID NOs: 1-26) were tested. On day 6 of culture, the compounds were dissolved in culture medium and then pre-is incubated with mesencephalic neurons for 4 hours before the MPP+ application. Four hours after the preincubation of the compounds, MPP+ was added to a final concentration of 4 pM, diluted in control medium still in presence of compounds for 48 h.
48 h after intoxication, the cells were fixed by a solution of 4% paraformaldehyde in PBS, pH 7.3 for 20 min at room temperature. The cells were washed twice in PBS, and then permeabilized and non-specific sites were blocked with a solution of PBS containing 0.1% of saponin and 1% FCS for 15 min at room temperature. Next, the cells were incubated with (a) a monoclonal antibody anti-Tyrosine Hydroxylase (TH) produced in mouse at dilution of 1:10000 and with (b) a polyclonal antibody anti-alpha-synuclein (α-syn) antibody produced in rabbit at dilution of 1:400 in PBS containing 1% FCS, 0.1% saponin, for 2 h at room temperature.
48 h after intoxication, the cell culture supernatant was removed, and the cells fixed by a solution of 4% paraformaldehyde in PBS, pH 7.3 for 20 min at room temperature. The cells were washed twice in PBS, and then permeabilized and non-specific sites were blocked with a solution of PBS containing 0.1% of saponin and 1% FCS for 15 min at room temperature. Then, the cells were incubated with a) a monoclonal Anti-Tyrosine Hydroxylase (TH) antibody produced in mouse at dilution of 1:10000 in PBS containing 1% FCS, 0.1% saponin, for 2 hours at room temperature, and b) a polyclonal anti-postsynaptic density protein-95 (PSD-95) antibody produced in rabbit at dilution of 1:200 in PBS containing 1% FCS, 0.1% saponin, for 2 h at room temperature. This antibody stains specifically synapses. […]

[2] = target: GRP78-NBD; test: Binding to GRP78-NBD Kd (μM)
From the text: Table printed on a drawing sheet, FIG. 5B
Head of the field: Binding to GRP78-NBD Kd (μM)
GRP78-NBD is shown in a translucent surface model along with its cartoon trace. The Cys-Cys bond in compound 12 (SEQ ID NO: 12) is shown in sticks.
The binding affinities are obtained by a microscale thermophoresis-based cell-free assay.
GSK2606414 was used to inhibit PERK signaling and KIRA6 to inhibit IRE1alpha signaling. * p<0.05, ** p<0.01, *** p<0.001, **** p<0.0001 one-way ANOVA is test with post-hoc Fisher's LSD test for pairwise comparison vs MPP+ negative control. # p<0.05, ## p<0.01, ### p<0.001, #### p<0.0001 one-way ANOVA test with post-hoc Fisher's LSD test for pairwise comparison between effect of compound alone and its combination with UPR signal inhibitor.
Where the first naming reader finds the target: head: Binding to GRP78-NBD Kd (μM)

[3] = In vivo pharmacokinetics after intravenous administration to rats; parameters: species or system male Sprague-Dawley rats; details: rat, 5 mg/kg intravenous bolus, male Sprague-Dawley rats
Protocol: The clearance and elimination of peptides can be mediated by multiple processes in vivo, including metabolism and renal elimination.
Test compounds were intravenously (i.v.) administered to male Spraque-Dawley rats (about is six weeks old, n=3 per compound) at 5 mg/kg. Blood samples were collected from jugular vein through implanted in-dwelling catheters (250 pl blood) into labelled polypropylene tubes containing anticoagulant (heparin) at 2 min, 5 min,15 min, 30 min, 1 h, 2 h and 4 h after compound administration and held on wet ice for a maximum of 30 minutes. The blood samples were centrifuged for plasma separation (4 °C, 21100 G, 5 min). Tolbutamide 500ng/ml with 10% TFA in acetonitrile or in MeCN was used as an internal standard solution.
The standard samples were prepared into rat plasma by spiking the matrix into concentrations 2-10 000 ng/ml of the analyte, respectively, and otherwise treated as the samples. To 50 pl aliquots of sample plasma was added 200 pl of internal standard. Samples were mixed (150 rpm, 15 min) and centrifugated (3000 rpm, 15min). The analytical method was optimized for reaction monitoring chromatographic (peak shape & retention) shifts and mass spectrometric properties (ionization efficiency, MS/MS detection). Supernatants were analyzed by UHPLC-TOF mass spectrometry using electrospray ionization.

Compound: CDNF: full-length cerebral dopamine neurotrophic factor protein (rhCDNF), positive reference in the MPP+ neuroprotection model
number of α-Syn inclusions (alpha-synuclein aggregates) in TH-positive neurons ([1]; primary rat mesencephalic culture after MPP+ injury): reducing accumulation
protection of TH-positive neurons, their neurites and synapses from MPP+ toxicity ([1]; primary rat mesencephalic culture, 4 h preincubation, MPP+ 48 h): neuroprotective

Compound: VDLKKLRVKELKKILDDWGETCKGCAE (disulfide 22-25) [Compound 3]
Kd [2]: 0.29 µM

Kd [2]: 11 µM
Compound: KSILDDWGETCKGCAE (disulfide 11-14) [Compound 9]

Kd [2]: 1.08 µM
Compound: WGETCKGCAEKS (disulfide 5-8) [Compound 13]

AUC(0-inf) ([3]; in vivo): 4150 ng·h/mL
MRT ([3]; in vivo): 1.07 min
Vd ([3]; in vivo): 0.02 L/kg
half-life ([3]; in vivo): 4.52 min
clearance ([3]; plasma, read-out: CI): 20.1 mL/min/kg
Compound: CC[C@H](C)[C@H](NC(=O)[C@H](CCCCN)NC(=O)[C@H](CCCCN)NC(=O)[C@H](CC(C)C)NC(=O)[C@H](CCC(=O)O)NC(=O)[C@H](CCCCN)NC(=O)[C@@H](NC(=O)[C@H](CCCNC(=N)N)NC(=O)[C@H](CC(C)C)NC(=O)[C@H](CCCCN)NC(=O)[C@H](CCCCN)NC(=O)[C@H](CC(C)C)NC(=O)[C@H](CC(=O)O)NC(=O)[C@@H](N)C(C)C)C(C)C)C(=O)N[C@@H](CC(C)C)C(=O)N[C@@H](CC(=O)O)C(=O)N[C@@H](CC(=O)O)C(=O)N[C@@H](Cc1c[nH]c2ccccc12)C(=O)NCC(=O)N[C@@H](CCC(=O)O)C(=O)N[C@H](C(=O)N[C@H]1CSSC[C@@H](C(=O)N[C@@H](C)C(=O)N[C@@H](CCC(=O)O)C(=O)O)NC(=O)CNC(=O)[C@H](CCCCN)NC1=O)[C@@H](C)O [Compound 3] (H-VDLKKLRVKELKKILDDWGETCKGCAE-OH; disulfide 22-25)

Kd [2]: 0.06 µM
Compound: VDLRKMRVAELKQILHSWGEECRACAE (disulfide 22-25) [Compound 1]

Kd [2]: 3.21 µM
Compound: GEECRACAEKT (disulfide 4-7) [Compound 15]
